The values that follow come from ChEMBL document CHEMBL5370693, “Kinases Controlling Stability of the Oncogenic MYCN Protein” (ACS Med Chem Lett, 2023).

The structures appear in SMILES notation.

The test system of the test is Phosphatidylinositol 4,5-bisphosphate 3-kinase catalytic subunit alpha isoform (Homo sapiens), P42336 [H1047L]. As to the kind of experiment: Inhibition of PIK3CA H1047L mutant (unknown origin) assessed as remaining activity at […] incubated for 1 hr by KINOMEscan competitive binding assay relative to control.
Sequence of Phosphatidylinositol 4,5-bisphosphate 3-kinase catalytic subunit alpha isoform (Homo sapiens), P42336 [H1047L] (P42336 whole entry H1047L, canonical isoform): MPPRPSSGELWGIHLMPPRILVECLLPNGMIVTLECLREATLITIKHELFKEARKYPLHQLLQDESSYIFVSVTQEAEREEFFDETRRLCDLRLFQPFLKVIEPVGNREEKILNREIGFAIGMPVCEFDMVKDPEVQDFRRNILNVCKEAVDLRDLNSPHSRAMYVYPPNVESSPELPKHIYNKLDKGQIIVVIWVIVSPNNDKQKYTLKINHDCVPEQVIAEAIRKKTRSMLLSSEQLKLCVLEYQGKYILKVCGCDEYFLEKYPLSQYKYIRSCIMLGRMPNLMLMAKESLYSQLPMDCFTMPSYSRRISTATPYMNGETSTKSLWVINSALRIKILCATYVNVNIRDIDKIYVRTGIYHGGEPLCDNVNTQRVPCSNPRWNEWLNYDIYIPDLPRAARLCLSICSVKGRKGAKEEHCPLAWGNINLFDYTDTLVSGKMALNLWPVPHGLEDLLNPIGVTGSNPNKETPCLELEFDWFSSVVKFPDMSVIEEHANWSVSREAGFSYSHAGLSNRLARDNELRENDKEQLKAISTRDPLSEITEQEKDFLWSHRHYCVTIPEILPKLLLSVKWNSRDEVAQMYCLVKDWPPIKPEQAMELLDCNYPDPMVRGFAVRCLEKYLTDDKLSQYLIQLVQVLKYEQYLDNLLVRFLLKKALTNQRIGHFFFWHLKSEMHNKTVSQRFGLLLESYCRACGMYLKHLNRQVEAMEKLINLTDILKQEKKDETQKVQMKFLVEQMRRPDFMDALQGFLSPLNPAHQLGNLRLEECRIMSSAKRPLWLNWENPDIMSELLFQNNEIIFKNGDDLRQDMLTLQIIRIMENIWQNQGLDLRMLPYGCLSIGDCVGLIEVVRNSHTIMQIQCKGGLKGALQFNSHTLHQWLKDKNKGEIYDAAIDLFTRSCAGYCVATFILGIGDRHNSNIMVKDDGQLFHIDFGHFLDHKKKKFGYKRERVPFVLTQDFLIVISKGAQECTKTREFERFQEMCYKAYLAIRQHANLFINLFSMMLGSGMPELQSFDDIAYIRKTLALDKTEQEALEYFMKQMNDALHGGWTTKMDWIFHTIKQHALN

On to `CC(C)=CCc1c2c(c3occ(-c4ccc(O)c(O)c4)c(=O)c3c1O)C=CC(C)(C)O2`, for which the Activity was found to be 74%.
